Results as given in patent US20220395464A1, “ORALLY ADMINISTERED SOLID DOSAGE FORM DRUG” (ASCENTAWITS PHARMACEUTICALS, LTD., priority 2019, published 2022).
Where two headings read alike, the source gives them in different places.

Assay: Pharmacokinetics after single intravenous drip infusion, plasma LC-MS/MS
Assay type: in vivo, Philippine macaques
Conditions: for concentration at 0.17 hr / concentration at 0.25 hr / concentration at 0.5 hr / concentration at 0.75 hr / concentration at 1 hr: intravenous, AST-3424-D6 intravenous drip infusion 0.42 mg/kg
Procedure: AST-3424 and AST-3424-D6 (i.e. the compound of formula I) were administered to Philippine macaques by intravenous drip infusion, and blood samples were collected at different appointed times. LC-MS/MS was used to determine concentrations of the test substances in plasma of the Philippine macaques after administration, and relevant pharmacokinetic parameters were calculated.
Preparation method: 0.447 ml of AST-3424 (0.2 mg/ml) and 0.481 ml of AST-3424-D6 (0.2 mg/ml) were added into 104.272 ml of the dissolvent, respectively, and mixed for 5 minutes to obtain colorless and clarified solutions with pH 7.0.
The four male Philippine macaques were purchased from Guangxi Xiongsen Primate Development Experiment Co., Ltd. All Philippine macaques were healthy with qualified medical examination and no abnormality. Three of animals were used for the experiment, and one of them was used to prepare blank plasma.
About 0.8 ml of blood samples were collected through femoral vein and anticoagulated with heparin sodium. Appointed times of blood collection were before administration, 0.17, 0.25, 0.5, 0.75, 1, 2, and 4 hours after administration.
The blood samples were placed on ice after collection. Next, plasma samples were separated by centrifugation, and centrifugation conditions were 3500 rpm for 10 minutes at 4° C. Then, the collected plasma samples were stored at −80° C. until analysis. The plasma samples were analyzed by LC-MS/MS by an analysis department of an experimental institution. Besides, Lower limit of quantifications (LLOQ) of AST-3424 and AST-3424-D6 detection were 1 ng/ml. The accuracy of analysis results of an accompanying standard curve and a quality control samples all met the relevant requirements of biological analysis (the accuracy of the quality control samples exceeding 66.7% was between 85˜115%) in a process of the sample detection.
According to average blood concentration data of each group at each appointed time, the pharmacokinetic parameters of the compounds were respectively computed by a pharmacokinetic computing software, a non-compartmental model. In addition, the pharmacokinetic parameters were AUC0-t, AUC0-∞, MRT0-∞, Cmax, Tmax, t1/2, etc. In the case of the concentrations of the samples whose concentration being lower than a lower limit of quantification, the following schemes were used to compute the pharmacokinetic parameters. The samples sampled before reaching Cmax shall be computed as zero value, while the samples sampled after reaching Cmax shall be computed as non-quantifiable (marked as “BLQ”).
After a single intravenous infusion of the compounds AST-3424 and AST-3424-D6 was administered to the Philippine macaques, the whole blood samples of the corresponding animals were collected at the appointed times. Next, the whole blood samples were processed and biologically analyzed to obtain concentrations of the compounds in the plasma at the different appointed times. Results of the assay were listed in Table 14 below, and corresponding means of the plasma-drug concentration-time curves are shown in FIG. 3.
According to the plasma-drug concentration data of each drug group, the pharmacokinetic parameters of each compound group were computed using the non-compartmental model of the pharmacokinetic computing software. The pharmacokinetic

[1] = male, Philippine macaque, plasma, 0.42 mg/kg, individual animals 101, 102, 103, read-out: Plasma-drug concentration
[2] = male, Philippine macaque, plasma, 0.42 mg/kg, read-out: Plasma-drug concentration, mean

In the case of `[2H]C([2H])([2H])N(C(=O)c1cccc(Oc2cc([C@H](C)OP(=O)(N3CC3)N3CC3)ccc2[N+](=O)[O-])c1)C([2H])([2H])[2H]` [AST-3424-D6], the Vz (AST-3424-D6 single intravenous infusion, Table 15 heading 0.58 mg/kg (text: 0.42 mg/kg), plasma, individual animals 101, 102, 103) is reported as 0.23679 L/kg, the “Integral area under the drug-time curve (AUC) compared with AST-3424, in words” value (Philippine macaques, FIG. 3, 0.42 mg/kg AST-3424-D6 vs 0.58 mg/kg AST-3424) is reported as “smaller” and the AUC(0-t) (male, Philippine macaque, cynomolgus monkey, plasma, iv, 0.42 mg/kg, AST-3424-D6 single intravenous infusion, Table 15 heading 0.58 mg/kg (text: 0.42 mg/kg), plasma, individual animals 101, 102, 103, read-out: AUC(0−t)) is reported as 286 ng·h/mL. The AUC(0-inf) (male, Philippine macaque, cynomolgus monkey, plasma, iv, 0.42 mg/kg, AST-3424-D6 single intravenous infusion, Table 15 heading 0.58 mg/kg (text: 0.42 mg/kg), plasma, individual animals 101, 102, 103, read-out: AUC(0−∞)) was 334 ng·h/mL, the clearance (male, Philippine macaque, cynomolgus monkey, plasma, iv, 0.42 mg/kg, AST-3424-D6 single intravenous infusion, Table 15 heading 0.58 mg/kg (text: 0.42 mg/kg), plasma, individual animals 101, 102, 103, read-out: Cl (converted)) was 20.9 mL/min/kg and the Cmax (male, Philippine macaque, cynomolgus monkey, plasma, iv, 0.42 mg/kg, AST-3424-D6 single intravenous infusion, Table 15 heading 0.58 mg/kg (text: 0.42 mg/kg), plasma, individual animals 101, 102, 103, read-out: Cmax) was 485 ng/mL. For the same molecule, the MRT last (male, Philippine macaque, cynomolgus monkey, plasma, iv, 0.42 mg/kg, AST-3424-D6 single intravenous infusion, Table 15 heading 0.58 mg/kg (text: 0.42 mg/kg), plasma, individual animals 101, 102, 103, read-out: MRT(0−t)) was 9 min, the MRT inf (male, Philippine macaque, cynomolgus monkey, plasma, iv, 0.42 mg/kg, AST-3424-D6 single intravenous infusion, Table 15 heading 0.58 mg/kg (text: 0.42 mg/kg), plasma, individual animals 101, 102, 103, read-out: MRT(0−∞)) was 9.6 min and the half-life (male, Philippine macaque, cynomolgus monkey, plasma, iv, 0.42 mg/kg, AST-3424-D6 single intravenous infusion, Table 15 heading 0.58 mg/kg (text: 0.42 mg/kg), plasma, individual animals 101, 102, 103, read-out: T1/2 (converted)) was 7.8 min. The Vd (male, Philippine macaque, cynomolgus monkey, plasma, iv, 0.42 mg/kg, AST-3424-D6 single intravenous infusion, Table 15 heading 0.58 mg/kg (text: 0.42 mg/kg), plasma, individual animals 101, 102, 103, read-out: Vss) was 0.198 L/kg, the Vd (male, Philippine macaque, cynomolgus monkey, plasma, iv, 0.42 mg/kg, AST-3424-D6 single intravenous infusion, Table 15 heading 0.58 mg/kg (text: 0.42 mg/kg), plasma, individual animals 101, 102, 103, read-out: Vz) was 0.234 L/kg and the AUC(0-t) (male, Philippine macaque, cynomolgus monkey, plasma, iv, 0.42 mg/kg, AST-3424-D6 single intravenous infusion, Table 15 heading 0.58 mg/kg (text: 0.42 mg/kg), plasma, read-out: AUC(0−t), Mean) was 302 ± 22.6 ng·h/mL. For the same molecule, the AUC(0-inf) (male, Philippine macaque, cynomolgus monkey, plasma, iv, 0.42 mg/kg, AST-3424-D6 single intravenous infusion, Table 15 heading 0.58 mg/kg (text: 0.42 mg/kg), plasma, read-out: AUC(0−∞), Mean) was 315 ± 27.2 ng·h/mL, the Cmax (male, Philippine macaque, cynomolgus monkey, plasma, iv, 0.42 mg/kg, AST-3424-D6 single intravenous infusion, Table 15 heading 0.58 mg/kg (text: 0.42 mg/kg), plasma, read-out: Cmax, Mean) was 522 ± 46 ng/mL and the MRT last (male, Philippine macaque, cynomolgus monkey, plasma, iv, 0.42 mg/kg, AST-3424-D6 single intravenous infusion, Table 15 heading 0.58 mg/kg (text: 0.42 mg/kg), plasma, read-out: MRT(0−t), Mean) was 8.4 ± 0.6 min. For the same molecule, the MRT inf (male, Philippine macaque, cynomolgus monkey, plasma, iv, 0.42 mg/kg, AST-3424-D6 single intravenous infusion, Table 15 heading 0.58 mg/kg (text: 0.42 mg/kg), plasma, read-out: MRT(0−∞), Mean) was 9 min, the half-life (male, Philippine macaque, cynomolgus monkey, plasma, iv, 0.42 mg/kg, AST-3424-D6 single intravenous infusion, Table 15 heading 0.58 mg/kg (text: 0.42 mg/kg), plasma, read-out: T1/2, Mean (converted)) was 7.2 min and the Tmax (male, Philippine macaque, cynomolgus monkey, plasma, iv, 0.42 mg/kg, AST-3424-D6 single intravenous infusion, Table 15 heading 0.58 mg/kg (text: 0.42 mg/kg), plasma, read-out: Tmax, Mean) was 18.6 min. For the same molecule, the Vd (male, Philippine macaque, cynomolgus monkey, plasma, iv, 0.42 mg/kg, AST-3424-D6 single intravenous infusion, Table 15 heading 0.58 mg/kg (text: 0.42 mg/kg), plasma, read-out: Vss, Mean) was 0.202 L/kg, the concentration at 0.17 hr [1] was 416 ng/mL and the concentration at 0.17 hr [2] was 490 ng/mL. It also gave a concentration at 0.25 hr [1] of 479 ng/mL, a concentration at 0.25 hr [2] of 505 ng/mL and a concentration at 0.5 hr [1] of 485 ng/mL. For the same molecule, the concentration at 0.5 hr [2] was 502 ng/mL, the concentration at 0.75 hr [1] was 113 ng/mL and the concentration at 0.75 hr [2] was 109 ng/mL. The concentration at 1 hr [1] was 41 ng/mL, the concentration at 1 hr [2] was 33.8 ng/mL and the clearance (male, cynomolgus monkey, plasma, iv, 0.42 mg/kg, AST-3424-D6 single intravenous infusion, Table 15 heading 0.58 mg/kg (text: 0.42 mg/kg), plasma, read-out: Cl, Mean (converted)) was 22.3 mL/min/kg. It also gave a Vd (male, cynomolgus monkey, plasma, iv, 0.42 mg/kg, AST-3424-D6 single intravenous infusion, Table 15 heading 0.58 mg/kg (text: 0.42 mg/kg), plasma, read-out: Vz, Mean) of 0.235 L/kg.
